Consider four molecules from US20070078091A1, “Pharmaceutical combinations for compensating for a testosterone deficiency in men while simultaneously protecting the prostate” (priority 1998, published 2007).

In one series the test system is LNCaP prostate cells. Briefly: Inhibition of androgen-dependent cell proliferation in LNCaP prostate cells (growth assay, cell number after 7 days). It counts as cell-based, human. The conditions noted are these: androgen alone, FIG. 1. From the text:
In the example of the inhibition of the androgen-dependent cell proliferation in LNCaP prostate cells, the biological mechanism of action of the combination of 17β-hydroxy-17α-methyl-estra-4,9,11-trien-3-one (R 1881)+the 17α-cyano-methyl-17β-hydroxy-estra-4,9-dien-3-one (DIENOGEST=DNG) was examined.
To this end, the human prostate cancer cell LNCaP was cultivated under routine conditions in Dulbecco's modified Eagle medium (DMEM) with the addition of 10% FCS (fetal calf serum).
The cells were then cultured for 2 to 6 passages with DMEM and 10% DCC-FCS (steroid-depleted FCS), before it was used in a growth assay with 5% DCC-FCS.
For the test, the cells were saturated in 24-well plates (10,000 cells/well and ml).
After 24 hours, the steroids that were dissolved in ethanol were added to fresh test medium (final concentration of ethanol 0.1%), and the cells were incubated for 7 days at 37° (5% CO2). The cell number was determined after this time in a cell counting and analysis system (CASY, Scharfe System GmbH).

Series [1] relates to prostate of castrated male NMRI mice. Briefly: Prostate weights of castrated mice after combined testosterone/gestagen treatment. It counts as in vivo. How it is done:
The inhibition of a prostate growth that was induced by androgens and that was treated with a combination according to the invention, was also examined in the animal experiment.
To this end, 5 male NMRI mice of Møllegaard Breeding Centre Deutschland GmbH, Schönwalde weighing 28-30 g were castrated. Two weeks after the castration, testosterone propionate (TP) by itself—0.1 mg/animal—was administered to the control animals.
Also, two weeks after castration, the test animals were orally treated daily for one week with testosterone propionate (TP) 0.1 mg/animal/day s.c. and simultaneously with the following gestagens and the following dosages:
cyproterone acetate (CPA) at dosages of 0.1; 0.3; 1; 3 mg/animal/day dienogest (DNG) at dosages of 0.3; 1; 3; 10 mg/animal/day, chloromadinone acetate (CMA) at dosages 0.3; 1; 3; 10 mg/animal/day.
At the end of the test, the prostate weights of the mice were determined, and the test groups were compared.

Series [2] relates to prostate. The conditions noted are these: young men under exogenic testosterone administration; cited from earlier work.
The test system of series [3] is prostate. The settings on record: 8-month therapy, 23 men aged 40-65 years, 160 mg/day; cited from earlier work.

Take `C[C@]1(O)CC[C@H]2[C@@H]3CCC4=CC(=O)CCC4=C3C=C[C@@]21C` [R1881, 17β-hydroxy-17α-methyl-estra-4,9,11-trien-3-one]: the “Cell growth of LNCaP cells” value in the series with LNCaP prostate cells is given as “induces a cell growth”. As for `CCC(=O)O[C@H]1CC[C@H]2[C@@H]3CCC4=CC(=O)CC[C@]4(C)[C@H]3CC[C@]12C` [TP, testosterone propionate], in series [1] (0.1 mg/animal/day), the “Effect on prostate weight compared to the castrated and the intact control animals” value was “causes a clear increase of the prostate weight”. Also, in series [1] (TP 0.1 mg/animal alone (TP control), n = 5), the “Prostate weight (mean value ± S.D.)” value worked out at 4.4 ± 0.7 mg.

In the case of `CCCCCCC(=O)O[C@H]1CC[C@H]2[C@@H]3CCC4=CC(=O)CC[C@]4(C)[C@H]3CC[C@]12C` [testosterone enanthate], the “Prostate size by transrectal ultrasound” value in the series on prostate [2] was “an enlargement of the prostate was found”.

As to `CCCCCCCCCCC(=O)O[C@H]1CC[C@H]2[C@@H]3CCC4=CC(=O)CC[C@]4(C)[C@H]3CC[C@]12C` [testosterone undecanoate], the “Increase in size of the prostate” value with prostate [3] is 12%.
